In US20020026053A1, “Novel 3-(substituted) -2- indolinones compounds and use thereof as inhibitors of protein kinase activity” (priority 1997, published 2002):

Target: T1, Met receptor (EGFR/Met chimeric cells, EMR) (Homo sapiens, UniProt P08581)
T1 construct: expressed in transfected cells; the other entry of the earlier key: EGFR (P00533, Epidermal growth factor receptor)
Test: Met Autophosphorylation Assay
Assay type: biochemical
Details: protocol P.130
How it was run: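 Met phosphorylation was measured by capture ELISA. Lysates (90 μg/100 μl, HNTG plus 1 mM PMSF) from transiently transfected EGFR/Met chimera (EMR) cells were bound for 60 min at room temperature to wells holding rabbit anti-Met (C-28) on goat anti-rabbit coat. Phosphotyrosine was the read-out.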

T1 sequence (P08581 with tags, fused parts or gaps): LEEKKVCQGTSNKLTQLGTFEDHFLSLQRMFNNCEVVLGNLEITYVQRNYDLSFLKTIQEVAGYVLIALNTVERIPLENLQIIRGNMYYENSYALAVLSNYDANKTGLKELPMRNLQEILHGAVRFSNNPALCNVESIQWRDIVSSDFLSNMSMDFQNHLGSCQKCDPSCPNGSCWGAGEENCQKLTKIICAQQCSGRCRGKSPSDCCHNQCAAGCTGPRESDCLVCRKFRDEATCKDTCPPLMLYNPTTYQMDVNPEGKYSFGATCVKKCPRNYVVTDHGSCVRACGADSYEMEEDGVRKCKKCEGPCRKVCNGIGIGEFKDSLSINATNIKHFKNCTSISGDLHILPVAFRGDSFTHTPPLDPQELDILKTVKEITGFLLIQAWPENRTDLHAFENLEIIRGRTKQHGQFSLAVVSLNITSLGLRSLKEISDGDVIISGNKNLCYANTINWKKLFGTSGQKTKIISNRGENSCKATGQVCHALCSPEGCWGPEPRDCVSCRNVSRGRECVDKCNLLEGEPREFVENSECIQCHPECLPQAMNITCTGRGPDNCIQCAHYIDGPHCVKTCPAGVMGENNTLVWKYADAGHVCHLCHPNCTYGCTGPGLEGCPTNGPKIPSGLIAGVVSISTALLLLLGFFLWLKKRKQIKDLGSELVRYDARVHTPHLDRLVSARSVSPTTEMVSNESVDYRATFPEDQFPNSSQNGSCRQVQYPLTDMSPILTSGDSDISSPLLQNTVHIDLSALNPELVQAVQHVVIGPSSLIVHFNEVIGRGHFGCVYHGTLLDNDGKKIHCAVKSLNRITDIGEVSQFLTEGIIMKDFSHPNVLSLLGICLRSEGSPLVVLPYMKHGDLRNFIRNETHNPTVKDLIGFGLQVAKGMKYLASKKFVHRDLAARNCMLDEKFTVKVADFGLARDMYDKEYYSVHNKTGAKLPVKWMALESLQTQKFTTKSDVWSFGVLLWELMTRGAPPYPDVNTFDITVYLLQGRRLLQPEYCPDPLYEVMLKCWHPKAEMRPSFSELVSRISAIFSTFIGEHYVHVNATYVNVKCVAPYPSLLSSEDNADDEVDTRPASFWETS

| SMILES | Met Kinase % Inhibition (P.130) |
| --- | --- |
| Cc1c(Br)cc(Br)c2c1C(=Cc1cc(O)cc(O)c1)C(=O)N2 [10738/H07] | 77.2% |
| Cc1c(Br)cc(Br)c2c1C(=Cc1ccc(Cl)c(Cl)c1)C(=O)N2 [10738/H08] | 20.7% |
| COc1ccccc1C=C1C(=O)Nc2c(Br)cc(Br)c(C)c21 [10738/H09] | 52.3% |
| Cc1c(Br)cc(Br)c2c1C(=Cc1ccc(C(C)C)cc1)C(=O)N2 [10738/H10] | 27.7% |
| CCCOc1ccc(C=C2C(=O)Nc3c(Br)cc(Br)c(C)c32)cc1 [10738/H11] | 24.9% |
| COc1ccc(C=C2C(=O)Nc3c(Br)cc(Br)cc32)cc1C [10739/A02] | 41.8% |
| O=C1Nc2c(Br)cc(Br)cc2C1=Cc1cccc(OCc2ccccc2)c1 [10739/A03] | 37.4% |
| O=C1Nc2c(Br)cc(Br)cc2C1=Cc1ccc(OCc2ccccc2)cc1 [10739/A04] | 45.2% |
| O=C1Nc2c(Br)cc(Br)cc2C1=CC1COc2ccccc2O1 (stereo not drawn) [10739/A05] | 36.5% |
| O=C1Nc2c(Br)cc(Br)cc2C1=Cc1ccc(O)cc1Cl [10739/A06] | 70.1% |
| O=C1Nc2c(Br)cc(Br)cc2C1=Cc1cc(O)c(O)c(O)c1 [10739/A07] | 99.9% |
| COc1ccc(Oc2cccc(C=C3C(=O)Nc4c(Br)cc(Br)cc43)c2)cc1 [10739/A08] | 39.9% |
| CN(C)CCCOc1ccc(C=C2C(=O)Nc3c(Br)cc(Br)cc32)cc1 [10739/A09] | 60.4% |
| O=C1Nc2c(Br)cc(Br)cc2C1=Cc1ccoc1 [10739/A10] | 81.2% |
| O=C1Nc2c(Br)cc(Br)cc2C1=Cc1ccc(CO)o1 [10739/A11] | 82.8% |
| COc1ccc(C=C2C(=O)Nc3ccc(I)cc32)cc1C [10739/B02] | 68.1% |
| O=C1Nc2ccc(I)cc2C1=Cc1cccc(OCc2ccccc2)c1 [10739/B03] | 62.4% |
| O=C1Nc2ccc(I)cc2C1=Cc1ccc(OCc2ccccc2)cc1 [10739/B04] | 65.1% |
| O=C1Nc2ccc(I)cc2C1=CC1COc2ccccc2O1 (stereo not drawn) [10739/B05] | 74.0% |
| O=C1Nc2ccc(I)cc2C1=Cc1ccc(O)cc1Cl [10739/B06] | 68.1% |
| O=C1Nc2ccc(I)cc2C1=Cc1cc(O)c(O)c(O)c1 [10739/B07] | 98.7% |
| COc1ccc(Oc2cccc(C=C3C(=O)Nc4ccc(I)cc43)c2)cc1 [10739/B08] | 65.8% |
| CN(C)CCCOc1ccc(C=C2C(=O)Nc3ccc(I)cc32)cc1 [10739/B09] | 63.5% |
| O=C1Nc2ccc(I)cc2C1=Cc1ccoc1 [10739/B10] | 70.6% |
| O=C1Nc2ccc(I)cc2C1=Cc1ccc(CO)o1 [10739/B11] | 84.9% |
| COc1ccc(C=C2C(=O)Nc3ccc(Br)c(C)c32)cc1C [10739/C02] | 34.7% |

| SMILES | Met Kinase % Inhibition (P.130) |
| --- | --- |
| Cc1c(Br)ccc2c1C(=Cc1cccc(OCc3ccccc3)c1)C(=O)N2 [10739/C03] | 10.9% |
| Cc1c(Br)ccc2c1C(=Cc1ccc(OCc3ccccc3)cc1)C(=O)N2 [10739/C04] | −3.6% |
| Cc1c(Br)ccc2c1C(=CC1COc3ccccc3O1)C(=O)N2 (stereo not drawn) [10739/C05] | 34.7% |
| Cc1c(Br)ccc2c1C(=Cc1ccc(O)cc1Cl)C(=O)N2 [10739/C06] | 56.1% |
| Cc1c(Br)ccc2c1C(=Cc1cc(O)c(O)c(O)c1)C(=O)N2 [10739/C07] | 93.0% |
| COc1ccc(Oc2cccc(C=C3C(=O)Nc4ccc(Br)c(C)c43)c2)cc1 [10739/C08] | 9.1% |
| Cc1c(Br)ccc2c1C(=Cc1ccc(OCCCN(C)C)cc1)C(=O)N2 [10739/C09] | 76.3% |
| Cc1c(Br)ccc2c1C(=Cc1ccoc1)C(=O)N2 [10739/C10] | 66.3% |
| Cc1c(Br)ccc2c1C(=Cc1ccc(CO)o1)C(=O)N2 [10739/C11] | 61.0% |
| CNS(=O)(=O)c1ccc2c(c1)C(=Cc1ccc(OC)c(C)c1)C(=O)N2 [10739/D02] | 29.0% |
| CNS(=O)(=O)c1ccc2c(c1)C(=Cc1cccc(OCc3ccccc3)c1)C(=O)N2 [10739/D03] | 15.9% |
| CNS(=O)(=O)c1ccc2c(c1)C(=Cc1ccc(OCc3ccccc3)cc1)C(=O)N2 [10739/D04] | 11.1% |
| CNS(=O)(=O)c1ccc2c(c1)C(=CC1COc3ccccc3O1)C(=O)N2 (stereo not drawn) [10739/D05] | 30.0% |
| CNS(=O)(=O)c1ccc2c(c1)C(=Cc1ccc(O)cc1Cl)C(=O)N2 [10739/D06] | 59.2% |
| CNS(=O)(=O)c1ccc2c(c1)C(=Cc1cc(O)c(O)c(O)c1)C(=O)N2 [10739/D07] | 86.0% |
| CNS(=O)(=O)c1ccc2c(c1)C(=Cc1cccc(Oc3ccc(OC)cc3)c1)C(=O)N2 [10739/D08] | 5.2% |
| CNS(=O)(=O)c1ccc2c(c1)C(=Cc1ccc(OCCCN(C)C)cc1)C(=O)N2 [10739/D09] | 66.7% |
| COc1ccc(C=C2C(=O)Nc3ccc(S(=O)(=O)Nc4ccc(C(F)(F)F)cc4)cc32)cc1C [10739/E02] | 30.0% |
| O=C1Nc2ccc(S(=O)(=O)Nc3ccc(C(F)(F)F)cc3)cc2C1=Cc1cccc(OCc2ccccc2)c1 [10739/E03] | −3.4% |
| O=C1Nc2ccc(S(=O)(=O)Nc3ccc(C(F)(F)F)cc3)cc2C1=Cc1ccc(OCc2ccccc2)cc1 [10739/E04] | −15.2% |
| O=C1Nc2ccc(S(=O)(=O)Nc3ccc(C(F)(F)F)cc3)cc2C1=CC1COc2ccccc2O1 (stereo not drawn) [10739/E05] | 8.9% |
| O=C1Nc2ccc(S(=O)(=O)Nc3ccc(C(F)(F)F)cc3)cc2C1=Cc1ccc(O)cc1Cl [10739/E06] | 66.3% |
| O=C1Nc2ccc(S(=O)(=O)Nc3ccc(C(F)(F)F)cc3)cc2C1=Cc1cc(O)c(O)c(O)c1 [10739/E07] | 94.0% |
| COc1ccc(Oc2cccc(C=C3C(=O)Nc4ccc(S(=O)(=O)Nc5ccc(C(F)(F)F)cc5)cc43)c2)cc1 [10739/E08] | 16.1% |
| CN(C)CCCOc1ccc(C=C2C(=O)Nc3ccc(S(=O)(=O)Nc4ccc(C(F)(F)F)cc4)cc32)cc1 [10739/E09] | 33.8% |
| O=C1Nc2ccc(S(=O)(=O)Nc3ccc(C(F)(F)F)cc3)cc2C1=Cc1ccoc1 [10739/E10] | 71.9% |

| SMILES | Met Kinase % Inhibition (P.130) |
| --- | --- |
| O=C1Nc2ccc(S(=O)(=O)Nc3ccc(C(F)(F)F)cc3)cc2C1=Cc1ccc(CO)o1 [10739/E11] | 76.9% |
| COc1ccc(C=C2C(=O)Nc3ccc(S(=O)(=O)N4CCOCC4)cc32)cc1C [10739/F02] | 50.8% |
| O=C1Nc2ccc(S(=O)(=O)N3CCOCC3)cc2C1=Cc1cccc(OCc2ccccc2)c1 [10739/F03] | 38.8% |
| O=C1Nc2ccc(S(=O)(=O)N3CCOCC3)cc2C1=Cc1ccc(OCc2ccccc2)cc1 [10739/F04] | 30.4% |
| O=C1Nc2ccc(S(=O)(=O)N3CCOCC3)cc2C1=CC1COc2ccccc2O1 (stereo not drawn) [10739/F05] | −5.4% |
| O=C1Nc2ccc(S(=O)(=O)N3CCOCC3)cc2C1=Cc1ccc(O)cc1Cl [10739/F06] | 56.3% |
| O=C1Nc2ccc(S(=O)(=O)N3CCOCC3)cc2C1=Cc1cc(O)c(O)c(O)c1 [10739/F07] | 100.5% |
| COc1ccc(Oc2cccc(C=C3C(=O)Nc4ccc(S(=O)(=O)N5CCOCC5)cc43)c2)cc1 [10739/F08] | 13.4% |
| CN(C)CCCOc1ccc(C=C2C(=O)Nc3ccc(S(=O)(=O)N4CCOCC4)cc32)cc1 [10739/F09] | −7.0% |
| O=C1Nc2ccc(S(=O)(=O)N3CCOCC3)cc2C1=Cc1ccoc1 [10739/F10] | 40.4% |
| O=C1Nc2ccc(S(=O)(=O)N3CCOCC3)cc2C1=Cc1ccc(CO)o1 [10739/F11] | 40.9% |
| COc1ccc(C=C2C(=O)Nc3ccc(CCCl)cc32)cc1C [10739/G02] | 12.9. % |
| O=C1Nc2ccc(CCCl)cc2C1=Cc1cccc(OCc2ccccc2)c1 [10739/G03] | 9.3% |
| O=C1Nc2ccc(CCCl)cc2C1=Cc1ccc(OCc2ccccc2)cc1 [10739/G04] | 4.1% |
| O=C1Nc2ccc(CCCl)cc2C1=CC1COc2ccccc2O1 (stereo not drawn) [10739/G05] | 27.7% |
| O=C1Nc2ccc(CCCl)cc2C1=Cc1ccc(O)cc1Cl [10739/G06] | 27.7% |
| O=C1Nc2ccc(CCCl)cc2C1=Cc1cc(O)c(O)c(O)c1 [10739/G07] | 92.6% |
| COc1ccc(Oc2cccc(C=C3C(=O)Nc4ccc(CCCl)cc43)c2)cc1 [10739/G08] | 20.9% |
| CN(C)CCCOc1ccc(C=C2C(=O)Nc3ccc(CCCl)cc32)cc1 [10739/G09] | 46.1% |
| O=C1Nc2ccc(CCCl)cc2C1=Cc1ccoc1 [10739/G10] | 36.5% |
| O=C1Nc2ccc(CCCl)cc2C1=Cc1ccc(CO)o1 [10739/G11] | 56.7% |
| COc1ccc(C=C2C(=O)Nc3c(Br)cc(Br)c(C)c32)cc1C [10739/H02] | 26.6% |
| Cc1c(Br)cc(Br)c2c1C(=Cc1cccc(OCc3ccccc3)c1)C(=O)N2 [10739/H03] | 10.4% |
| Cc1c(Br)cc(Br)c2c1C(=Cc1ccc(OCc3ccccc3)cc1)C(=O)N2 [10739/H04] | −2.7% |
| Cc1c(Br)cc(Br)c2c1C(=Cc1ccc(O)cc1Cl)C(=O)N2 [10739/H06] | 42.2% |
| Cc1c(Br)cc(Br)c2c1C(=Cc1cc(O)c(O)c(O)c1)C(=O)N2 [10739/H07] | 93.7% |
